Laboratory results from ChEMBL document CHEMBL4433229, “Development of novel macrocyclic small molecules that target CTG trinucleotide repeats” (Bioorg Med Chem, 2019).
Activity calls are given as the source filed them. The rule behind the calls is not given here.

Columns and labels:
[1] = Selectivity ratio of transcription inhibition of random DNA sequence (unknown origin) to transcription inhibition of d(CTG.CAG)74 DNA sequence (unknown origin) by PAGE analysis
HeLa [2] = assay: Cytotoxicity against human HeLa cells assessed as reduction in cell viability at 0.2 to 100 uM after 72 hrs by SRB assay relative to control; format: cell-based
[3] = Selectivity ratio of cytotoxicity of compound to cytotoxicity of NC for human HeLa cells; format: cell-based
[4] = Binding affinity to r(CUG)12 RNA sequence (unknown origin) assessed as equilibrium dissociation constant by isothermal titration method
[5] = Inhibition of MBNL1 binding to r(CUG)12 RNA sequence (unknown origin) assessed as inhibition constant by gel electrophoresis mobility shift assay
[6] = Potency index, ratio of transcription inhibition of NC to transcription inhibition of compounds for d(CTG.CAG)74 DNA sequence by PAGE analysis
[7] = Binding affinity to d(CTG) duplex DNA sequence (unknown origin) assessed as equilibrium dissociation constant by isothermal titration method
[8] = Inhibition of d(CTG.CAG)74 DNA sequence (unknown origin) transcription at 25 uM pre-incubated for 3 hrs followed by addition of T7 polymerase and measured after 1.5 hrs by PAGE analysis
[9] = Binding affinity to d(CTG) T-T DNA sequence (unknown origin) assessed as equilibrium dissociation constant by isothermal titration method; settings: read-out: Kd(app)
[10] = Binding affinity to d(CTG) U-U DNA sequence (unknown origin) assessed as equilibrium dissociation constant by isothermal titration method
[11] = Binding affinity to d(CTG) C-C DNA sequence (unknown origin) assessed as equilibrium dissociation constant by isothermal titration method; settings: for Kd: read-out: Kd(app)
[12] = Binding affinity to d(CTG) A-A DNA sequence (unknown origin) assessed as equilibrium dissociation constant by isothermal titration method
DNA [13] = assay: Inhibition of random DNA sequence (unknown origin) transcription at 50 uM pre-incubated for 3 hrs followed by addition of T7 polymerase and measured after 1.5 hrs by PAGE analysis; format: nucleic-acid assay
HeLa [14] = assay: Cytotoxicity against human HeLa cells assessed as reduction in cell viability after 72 hrs by SRB assay relative to control; format: cell-based
[15] = Binding affinity to d(CTG) T-T 3 DNA sequence (unknown origin) assessed as equilibrium dissociation constant by isothermal titration method
[16] = Binding affinity to d(CTG) T-T 2 DNA sequence (unknown origin) assessed as equilibrium dissociation constant by isothermal titration method
HeLa [17] = assay: Cytotoxicity against human HeLa cells assessed as reduction in cell viability at 25 uM after 72 hrs by SRB assay relative to control; format: cell-based
[18] = Displacement of ethidium from d(CTG)2 DNA sequence (unknown origin) and measured by fluorescence method relative to NC
DNA [19] = assay: Inhibition of random DNA sequence (unknown origin) transcription at 100 uM pre-incubated for 3 hrs followed by addition of T7 polymerase and measured after 1.5 hrs by PAGE analysis; format: nucleic-acid assay
[20] = Binding affinity to d(CTG) T-T DNA sequence (unknown origin) assessed as mole fraction of compound required to show 2:1 stoichiometry for compound-DNA complex at 50 uM by Job's plot analysis
[21] = Binding affinity to d(CTG) T-T DNA sequence (unknown origin) assessed as mole fraction of compound required to show 1:1 stoichiometry for compound-DNA complex at 50 uM by Job's plot analysis
[22] = Binding affinity to d(CTG) T-T DNA sequence (unknown origin) assessed as mole fraction of compound required to show 1.3:1 stoichiometry for compound-DNA complex at 50 uM by Job's plot analysis
[23] = Binding affinity to d(CTG)2 DNA sequence (unknown origin) assessed as equilibrium dissociation constant by isothermal titration method
[24] = Binding affinity to r(CUG)4 RNA sequence (unknown origin) assessed as equilibrium dissociation constant by isothermal titration method
[25] = Inhibition of d(CTG.CAG)74 DNA sequence (unknown origin) transcription at 6 uM pre-incubated for 3 hrs followed by addition of T7 polymerase and measured after 1.5 hrs by PAGE analysis
HeLa [26] = assay: Cytotoxicity against human HeLa cells assessed as reduction in cell viability at 6 uM after 72 hrs by SRB assay relative to control; format: cell-based
DNA [27] = assay: Inhibition of random DNA sequence (unknown origin) transcription at 0 to 50 uM pre-incubated for 3 hrs followed by addition of T7 polymerase and measured after 1.5 hrs by PAGE analysis; format: nucleic-acid assay
DNA [28] = assay: Inhibition of random DNA sequence (unknown origin) transcription at 25 uM pre-incubated for 3 hrs followed by addition of T7 polymerase and measured after 1.5 hrs by PAGE analysis; format: nucleic-acid assay

Row | Selectivity ratio [1] | Selectivity ratio [6] | Kd(app) [7] | inhibition [8] [%] | Kd [9] [µM] | Kd(app) [10] | Kd(app) [12] | Structure (SMILES) | Activity (HeLa [2]) | selectivity ratio [3] | further results
1 | 3 |  |  |  |  |  |  | Nc1nc2nc(n1)NCCCCNc1c3ccccc3nc3c(cccc13)C(=O)NCCCCN2 | Toxic | 10 | 
2 |  |  |  |  |  |  |  | N=C(NCCCCNc1nc(N)nc(N)n1)c1ccc(C(=N)NCCCCNc2nc(N)nc(N)n2)cc1 |  |  | Ki [4]: 8 µM; Ki [5]: 8 µM
3 | 3 | 4 | inactive | 60 | 34.9 | inactive | inactive | Nc1nc2nc(n1)NCCCNc1c3ccccc3nc3c(cccc13)C(=O)NCCCCN2 |  | 10 | Kd [11]: 404 µM; inhibition (DNA [13]): 45%; IC50 (HeLa [14]): > 100 µM
4 | 3 | 4 | inactive | 60 | 18.1 | inactive | inactive | Nc1nc2nc(n1)NCCCNc1c3ccccc3nc3c(cccc13)C(=O)NCCCN2 |  | 10 | Kd [15]: 15.1 µM; Kd [16]: 19.8 µM; Activity (HeLa [17]): Non-Toxic; Activity [18]: Active; inhibition (DNA [19]): 45%; Activity (mole fraction) [20]: 0.68; Activity (mole fraction) [21]: 0.5; Kd(app) [11]: inactive; Activity (mole fraction) [22]: 0.57
5 |  |  |  |  |  |  |  | COc1ccc2nc3cc(Cl)ccc3c(NCCCCNc3nc(N)nc(N)n3)c2c1 |  |  | Kd [23]: 0.3 to 0.4 µM; Kd [24]: 0.3 to 0.4 µM; Ki [5]: 6 µM
6 |  |  |  |  |  |  |  | Nc1nc2nc(n1)NCCCCCNc1c3ccccc3nc3c(cccc13)C(=O)NCCCCCN2 | Toxic | 10 | 
7 | 3 |  |  | 35 | 5.8 |  |  | CNC(=O)c1cccc2c(NCCCCNc3nc(N)nc(N)n3)c3ccccc3nc12 |  |  | Kd ([7]; read-out: Kd(app)): 69 µM; Kd ([10]; read-out: Kd(app)): 17.9 µM; Kd [11]: 159 µM; inhibition (DNA [13]): 45%
8 |  | 4 | inactive | 85 | 19.8 | inactive | inactive | Nc1nc2nc(n1)NCCCNC(=O)c1cccc3c(c4ccccc4nc13)NCCCCN2 | Toxic | 10 | inhibition [25]: 45%; Activity (HeLa [26]): < 10%; inhibition (DNA [19]): < 20%; inhibition (DNA [27]): < 10%; Kd(app) [11]: inactive; inhibition (DNA [28]): -0%; IC50 (HeLa [14]): 20 µM
